# Data: patent US11413278B2, “Compounds and methods for promoting stress resistance” (priority 2015, dated 2022)
# Like-named read-outs stand apart in the source and are kept apart here.
# Assays:
# human PARP1 = target: T1, human PARP1 (Homo sapiens, UniProt P09874); assay: PARP inhibitor assay (HT Fluorescent Homogeneous PARP Inhibition Assay Kit); type: biochemical
# T1 construct: purchased Trevigen
# Summary of the method: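 Compounds (10 μM final) incubated 30 min, room temperature, dark, with human PARP1, nicotinamide adenine dinucleotide and activated DNA. Fluorescent signal generated by 1 hr cycling with diaphorase and resazurin, then reaction stopped.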
# WI-38 cells = details: no H2O2 stress, 10 uM; negative control 0.41% ± 0.23%
# Method: WI-38 cells were seeded on 384-well plates for 24 hrs and then incubated with small molecules for 24 hrs. […] Images were collected on an INCell Analyzer 2000 (GE) and analyzed with the Developer software.
# C. elegans = C. elegans lifespan assays (liquid and plate); type: in vivo, Caenorhabditis elegans; details: for ILS at 60 µM / ILS at 66 µM: Caenorhabditis elegans
# FOXO3 = assay: qPCR analysis of FOXO3-regulated genes; type: cell-based, human; details: for fold induction at 10 µM: Homo sapiens
# Summary of the method: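 FOXO3 target-gene expression quantified by qPCR normalised to B2M, PPIA and GAPDH, in WI-38 cells after 24 h exposure to 10 μM compound. Some runs used cells first transfected 36 h with 10 nM FOXO3 or NRF2 siRNA and replated ~24 h before dosing.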
# NRF2 = assay: qPCR analysis of NRF2-regulated genes; type: cell-based, human; details: for fold induction at 10 µM: Homo sapiens
# Summary of the method: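 Expression of HMOX1, NQO1, GCLC and GSTM1 measured by qPCR relative to B2M, PPIA and GAPDH. Cells were WI-38 fibroblasts exposed 24 hrs to 10 μM compound, with RNA and cDNA prepared via Cells-to-Ct. Where stated, cells were first transfected 36 hrs with FOXO3 or NRF2 siRNA at 10 nM.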
# T1 sequence (P09874 whole entry): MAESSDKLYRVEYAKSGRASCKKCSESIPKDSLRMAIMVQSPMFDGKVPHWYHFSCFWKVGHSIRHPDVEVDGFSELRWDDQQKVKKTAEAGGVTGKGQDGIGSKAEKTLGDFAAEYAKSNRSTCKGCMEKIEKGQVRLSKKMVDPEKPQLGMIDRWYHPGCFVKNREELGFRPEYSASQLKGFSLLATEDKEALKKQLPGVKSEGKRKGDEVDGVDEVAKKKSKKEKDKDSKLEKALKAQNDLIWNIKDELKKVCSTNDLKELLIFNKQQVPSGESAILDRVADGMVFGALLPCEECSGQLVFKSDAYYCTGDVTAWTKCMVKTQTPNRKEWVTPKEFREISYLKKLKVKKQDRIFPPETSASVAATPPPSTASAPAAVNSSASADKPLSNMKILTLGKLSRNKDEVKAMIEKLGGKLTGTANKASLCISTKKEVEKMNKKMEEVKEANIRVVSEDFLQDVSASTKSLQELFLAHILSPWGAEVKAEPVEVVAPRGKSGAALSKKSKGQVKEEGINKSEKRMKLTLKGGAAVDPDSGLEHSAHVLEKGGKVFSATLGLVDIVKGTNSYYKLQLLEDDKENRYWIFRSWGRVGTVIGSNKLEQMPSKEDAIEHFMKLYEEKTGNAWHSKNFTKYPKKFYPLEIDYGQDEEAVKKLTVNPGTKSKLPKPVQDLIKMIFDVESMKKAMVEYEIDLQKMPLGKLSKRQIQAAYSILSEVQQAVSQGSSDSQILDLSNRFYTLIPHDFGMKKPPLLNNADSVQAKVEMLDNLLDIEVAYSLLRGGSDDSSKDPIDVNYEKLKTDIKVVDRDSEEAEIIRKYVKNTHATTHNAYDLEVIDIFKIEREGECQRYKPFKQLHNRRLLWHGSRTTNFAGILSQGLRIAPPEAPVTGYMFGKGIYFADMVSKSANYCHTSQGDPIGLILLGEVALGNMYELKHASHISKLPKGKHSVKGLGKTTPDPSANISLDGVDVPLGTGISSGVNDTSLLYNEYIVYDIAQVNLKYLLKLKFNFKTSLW
smiles,measurement,setting,value
CCCC(=O)Nc1ccc(-c2cn3cccc(C)c3n2)cc1 [O12],Inhibition of PARP1,"human PARP1; 10 μM, in vitro",inhibitors of PARP1
same,L = PARP inhibition,human PARP1; score,0
same,"Percentage of propidium iodide-positive dead cells (no H2O2 stress treatment), at 10 uM",WI-38 cells,"0.45% ± 0.05%,"
same,ILS at 60 µM,"C. elegans; in liquid, wild type, with FuDR, 1.0 × 10^9 bacteria/ml, read-out: relative change of mean lifespan vs control, Trial 1",36.8%
same,ILS at 60 µM,"C. elegans; in liquid, wild type, with FuDR, 2.5 × 10^9 bacteria/ml, read-out: relative change of mean lifespan vs control, Trial 2",9.6%
same,ILS at 60 µM,"C. elegans; on plate, CF512 temperature-sensitive sterile animals, without FuDR, 2.0 × 10^10 bacteria/ml, read-out: relative change of mean lifespan vs control, Trial 3",6.6%
same,ILS at 66 µM,"C. elegans; Assay 2(z), 1.0 × 10^9 bacteria/ml, wild type + FuDR (2012 July), read-out: Lifespan assay in liquid",36.8%
same,ILS at 66 µM,"C. elegans; Assay 3(aa), 2.5 × 10^9 bacteria/ml, wild type + FuDR, read-out: Lifespan assay in liquid",9.6%
same,ILS at 66 µM,"C. elegans; Assay 4(ab), 2.0 × 10^10 bacteria/ml, CF512 worms, no FuDR, read-out: Lifespan assay on plates",6.6%
same,Extension of C. elegans' lifespan (qualitative),"C. elegans; in at least 3 to 4 trials, group range ~10% to ~50%",could extend animal's lifespan
same,O = Life span- extending scores in worms,"C. elegans; score scale 0 to 2, 4 to 6 independent trials",2 (2 for observed in more than 2 trials)
same,M = Lifespan-extending scores in worms,C. elegans; summary score,2 (2 for observed in more than 2 trials)
same,"Induction of at least two of five FOXO3-regulated genes (SOD2, GADD45A, CAT, DDB1, TXNIP)","FOXO3; 10 μM, 24 hrs, WI-38",significant induction
same,"SOD2 expression, normalized fold change (FOXO3-regulated gene)","FOXO3; 10 μM, 24 hrs, WI-38 cells, qPCR, normalized to B2M, n = 4","SOD2 1.52, fold"
same,E = Potential FOXO3 Activation,FOXO3; 2-point score,2
same,fold induction at 10 µM,"FOXO3; 24 h, Assay 10(m), at 10 uM, qPCR, read-out: Induction of FOXO3-regulated genes: CAT normalized fold-change",0.82
same,fold induction at 10 µM,"FOXO3; 24 h, Assay 10(m), at 10 uM, qPCR, read-out: Induction of FOXO3-regulated genes: DDB1 normalized fold-change",0.86
same,fold induction at 10 µM,"FOXO3; 24 h, Assay 10(m), at 10 uM, qPCR, read-out: Induction of FOXO3-regulated genes: GADD45A normalized fold-change",1.44
same,fold induction at 10 µM,"FOXO3; 24 h, Assay 10(m), at 10 uM, qPCR, read-out: Induction of FOXO3-regulated genes: SOD2 normalized fold-change",1.35
same,fold induction at 10 µM,"FOXO3; 10 μM, 24 hrs, WI-38 cells, qPCR, normalized to B2M, n = 4, read-out: CAT expression, normalized fold change (FOXO3-regulated gene)",0.8
same,fold induction at 10 µM,"FOXO3; 10 μM, 24 hrs, WI-38 cells, qPCR, normalized to B2M, n = 4, read-out: GADD45A expression, normalized fold change (FOXO3-regulated gene)",1.69
same,fold induction at 10 µM,"FOXO3; WI-38 cells, 10 μM, 24 hrs, n=4, qPCR normalized by B2M, read-out: DDB1 Normalized fold change",1.02
same,fold induction at 10 µM,"FOXO3; WI-38 cells, 10 μM, 24 hrs, n=4, qPCR normalized by B2M, read-out: GADD45A Normalized fold change",1.69
same,fold induction at 10 µM,"FOXO3; WI-38 cells, 10 μM, 24 hrs, n=4, qPCR normalized by B2M, read-out: SESN1 Normalized fold change",1.05
same,fold induction at 10 µM,"FOXO3; fold change, qPCR, WI-38 cells, 10 μM, 24 hrs, read-out: Summary of effects on FOXO3-regulated genes: CAT",0.8
same,fold induction at 10 µM,"FOXO3; fold change, qPCR, WI-38 cells, 10 μM, 24 hrs, read-out: Summary of effects on FOXO3-regulated genes: GADD45A",1.69
same,fold induction at 10 µM,"FOXO3; qPCR, WI-38 cells, 10 μM, n=4, 24 hrs, normalized by B2M, read-out: CAT Normalized fold change",0.802
same,fold induction at 10 µM,"FOXO3; qPCR, WI-38 cells, 10 μM, n=4, 24 hrs, normalized by B2M, read-out: SOD2 Normalized fold change",1.52
same,fold induction at 10 µM,"FOXO3; qPCR, WI-38 cells, 10 μM, n=4, 24 hrs, normalized by B2M, read-out: TXNIP Normalized fold change",0.909
same,Summary of effects on FOXO3-regulated genes: SOD2,"FOXO3; fold change, qPCR, WI-38 cells, 10 μM, 24 hrs","SOD2 1.52,"
same,K = Sestrin induction,FOXO3; score,0
same,E = Potential FOXO3 Activation,FOXO3; summary score,0
same,F = Potential NRF2 Activation,NRF2; 2-point score,0
same,fold induction at 10 µM,"NRF2; 24 h, Assay 12(o), at 10 uM, qPCR, read-out: Induction of NRF2-regulated genes: GCLC normalized fold-change",0.54
same,fold induction at 10 µM,"NRF2; 24 h, Assay 12(o), at 10 uM, qPCR, read-out: Induction of NRF2-regulated genes: HMOX1 normalized fold-change",0.76
same,fold induction at 10 µM,"NRF2; 24 h, Assay 12(o), at 10 uM, qPCR, read-out: Induction of NRF2-regulated genes: NQO1 normalized fold-change",0.66
same,fold induction at 10 µM,"NRF2; rounded fold change, WI-38 cells, 10 μM, 24 hrs (RP11 for Gr-1D, RP29 for Gr-4D), read-out: Summary of effects on NRF2-regulated genes: HMOX1",0.82
same,fold induction at 10 µM,"NRF2; rounded fold change, WI-38 cells, 10 μM, 24 hrs (RP29 for Gr-4D), read-out: Summary of effects on NRF2-regulated genes: NQO1",0.69
same,fold induction at 10 µM,"NRF2; rounded fold change, WI-38 cells, 10 μM, 24 hrs, read-out: Summary of effects on NRF2-regulated genes: GCLC",0.53
same,fold induction at 10 µM,"NRF2; 10 μM, 24 hrs, WI-38 cells, qPCR, normalized to B2M, n = 4, read-out: GCLC expression, normalized fold change (NRF2-regulated gene)",0.53
same,fold induction at 10 µM,"NRF2; 10 μM, 24 hrs, WI-38 cells, qPCR, normalized to B2M, n = 4, read-out: HMOX1 expression, normalized fold change (NRF2-regulated gene)",0.82
same,fold induction at 10 µM,"NRF2; 10 μM, 24 hrs, WI-38 cells, qPCR, normalized to B2M, n = 4, read-out: NQO1 expression, normalized fold change (NRF2-regulated gene)",0.69
same,fold induction at 10 µM,"NRF2; WI-38 cells, 10 μM, 24 hrs, n=4, qPCR normalized by B2M, read-out: GCLC Normalized fold change",0.531
same,fold induction at 10 µM,"NRF2; WI-38 cells, 10 μM, 24 hrs, n=4, qPCR normalized by B2M, read-out: GSTM1 Normalized fold change",1.21
same,fold induction at 10 µM,"NRF2; WI-38 cells, 10 μM, 24 hrs, n=4, qPCR normalized by B2M, read-out: HMOX1 Normalized fold change",0.821
same,fold induction at 10 µM,"NRF2; WI-38 cells, 10 μM, 24 hrs, n=4, qPCR normalized by B2M, read-out: NQO1 Normalized fold change",0.692
same,F = Potential NRF2 Activation,NRF2; summary score,0
